Measured values taken from patent US9363995B2, “Use of derivative compounds of 1,3-benzodioxole in insecticidal compositions” (ENDURA S.P.A., priority 2012, dated 2016).
Like-named read-outs stand apart in the source and are kept apart here.

How the values were obtained:
Blattella germanica = assay: Mortality test on beetles, treated glass plates with chloropyriphos or propoxur; type: in vivo; details: 24 hours exposure; for Mortalità 1gg: 1 day from application; for Mortalità 3gg: 3 days from application
Procedure: Solutions of products of examples 1 and 3 in acetone and, for comparison, of piperonyl butoxide, with the organic phosphorus compound chloropyriphos and with carbamate compound propoxur, were applied from a distance of 12 cm on glass plates (model Ostra, 15×15 cm=225 square cm) by means of a suitable glass sprayer so as to obtain an applied amount of organic phosphorous compound equal to 33 mg/square m and of carbamate equal to 500 mg/mq. The products of examples 1 e 3 and the comparison compound PBO were in a weight ratio of 5:1 w/w with respect to the organic phosphorous compound and to the carbamate.
In the same way acetone solutions of organic phosphorous compound and of carbamate compound were prepared so as to obtain an applied amount of organic phosphorous compound equal to 33 mg/square m and of carbamate compound equal to 500 mg/mq. After the application the plates were transferred to a closed test room under controlled temperature and humidity (24-25° C., RH 50-60%). Glass rings (h 5.5 cm×diameter 9.5 cm), having internal surface treated with talc and each one containing 5 beetles—Blattella germanica—were placed in the centre of the plates. They were evaluated each one after 1 day and three days from the application. For each day, the insects were maintained on the surface for 24 hours.

[1] = tested on: adult, female insects of the Musca domestica species; assay: whole plant or invertebrate; type: in vivo; details: for Mortality: compound 1.25% w/v + tetramethrin 0.25% w/v in acetone; for synergist activity in respect of the tetramethrin: summary of Table 1, comparison with PBO
Procedure: After having mixed the products of Examples 1-4 with tetramethrin in acetone respectively at a concentration of 1.25% for the products of examples 1-4 and of 0.25% for the tetramethrin, 0.5 μl of acetone solution was applied to adult, female insects of the Musca domestica species, on the rear part of the pectoral region. The insect was then transferred to a closed plastic container approximately 12 cm in diameter and 6 cm in height and left at 25° C. with supply of 5% sugar solution. After 24 hours the alive and dead flies were examined to determine the percentage mortality. The total number of flies per container was equal to 20 and the test was repeated three times. For comparison acetone solutions at the same concentrations as previously indicated for the compounds of examples 1-4 and for tetramethrin alone were prepared.
For comparison an acetone solution at an equal concentration of piperonyl butoxide and tetramethrin and an acetone solution at the same concentration of piperonyl butoxide alone were also prepared.

[2] = Musca domestica, compound alone 1.25% w/v in acetone, tetramethrin 0, 0.5 μl topical, after 24 hours, read-out: Mortality
[3] = product 165 mg/sm + chloropyriphos 33 mg/sm
[4] = product 2500 mg/sm + propoxur 500 mg/sm

SMILES | mortality at 1.25 % strength [1, 2] [%] | Mortality ([1]; 0.5 μl topical, after 24 hours) [%] | Mortalità 1gg (Blattella germanica; [3]) [%] | Mortalità 3gg (Blattella germanica; [3]) [%] | Mortalità 1gg (Blattella germanica; [4]) [%] | Mortalità 3gg (Blattella germanica; [4]) [%] | further results
CCOP(=S)(OCC)Oc1nc(Cl)c(Cl)cc1Cl [Chloropyriphos, chloropyriphos, reference compound] |  |  |  |  |  |  | Mortalità 1gg (Blattella germanica; chloropyriphos alone 33 mg/sm): 32%; Mortalità 3gg (Blattella germanica; chloropyriphos alone 33 mg/sm): 48%
CCCCCCCCc1cc2c(cc1COCCOCCOCCCC)OCO2 [Ex. 1, 5-[2-(2-butoxyethoxy)-ethoxymethyl]-6-n-octyl-1,3-benzodioxole] | 0 | 100 | 62 | 85 | 48 | 60 | synergist activity in respect of the tetramethrin [1]: most active as synergists
CCCCOCCOCCOCc1cc2c(cc1CCCC)OCO2 [Ex. 2, 5-[2-(2-butoxyethoxy)-ethoxymethyl]-6-n-butyl-1,3-benzodioxole] | 0 | 80 |  |  |  |  | 
CCCCCCc1cc2c(cc1COCCOCCOCCCC)OCO2 [Ex. 3, 5-[2-(2-Butoxy-ethoxy)-ethoxymethyl]-6-n-hexyl-1,3-benzodioxole] | 0 | 100 | 60 | 80 | 44 | 56 | synergist activity in respect of the tetramethrin [1]: most active as synergists
CCCCCCCCCCc1cc2c(cc1COCCOCCOCCCC)OCO2 [Ex. 4, 5-[2-(2-Butoxyethoxy)-ethoxymethyl]-6-n-decyl-1,3-benzodioxole] | 0 | 80 |  |  |  |  | 
CCCCOCCOCCOCc1cc2c(cc1CCC)OCO2 [PBO, 5-[2-(2-butoxyethoxy)-ethoxymethyl]6-propyl-1,3-benzodioxole, reference compound] |  |  | 45 | 65 | 35 | 42 | mortality at 1.25 % strength ([1]; Musca domestica, topical, 24 h): 0%
CNC(=O)Oc1ccccc1OC(C)C [Propoxur, propoxur, reference compound] |  |  |  |  |  |  | Mortalità 1gg (Blattella germanica; propoxur alone 500 mg/sm): 20%; Mortalità 3gg (Blattella germanica; propoxur alone 500 mg/sm): 31%
CC(C)=CC1C(C(=O)OCN2C(=O)C3=C(CCCC3)C2=O)C1(C)C (stereo not shown) [tetramethrin, reference compound] |  |  |  |  |  |  | mortality at 0.25 % strength ([1]; Musca domestica, topical, 24 h): 20%
